Source: patent US20240317723A1, “SUBSTITUTED AMINO AZA-HETEROARYL COMPOUNDS AS INHIBITORS OF THE HAEMATOPOIETIC PROGENITOR KINASE 1 (HPK1)” (priority 2021, published 2024)

Key:
[1] = target: Lck (h) (Homo sapiens, UniProt P06239); test: Lck Human STE Kinase Enzymatic Radiometric Assay; assay type: biochemical; settings: for IC50: radiometric, [gamma-33P]-ATP, Cdc2 peptide substrate, read-out: Lck IC50, nM Range*
Experimental: (b) Lck Human STE Kinase Enzymatic Radiometric Assay
Lck (h) is incubated with 50 mM Tris pH 7.5, 0.1 mM EGTA, 0.1 mM Na3VO4, 250 uM KVEKIGEGTYGVVYK (Cdc2 peptide), 10 mM MgAcetate and [gamma-33P]-ATP (specific activity and concentration as required). The reaction is initiated by the addition of the Mg/ATP mix. After incubation for 40 minutes at room temperature, the reaction is stopped by the addition of phosphoric acid to a concentration of 0.5%. 10 uL of the reaction is then spotted onto a P30 filtermat and washed four times for 4 minutes in 0.425% phosphoric acid and once in methanol prior to drying and scintillation counting. For more details on the kinase assay procedures see: Gao, Y. et. al.; Biochem J., 451 (2): 313-328, 2013.
In some embodiments the presence of substituents on monocyclic Cy^2 rings or when Cy^2 is a bicyclic ring (unsubstituted or substituted) provides compounds with improved selectivity for inhibition of HPK1 vs Lck (see, for example, Table 3 and Table 4).

[2] = target: T1, Recombinant (1-346) HPK1 (h) (Homo sapiens, UniProt Q92918); test: HPK1 Human STE Kinase Enzymatic Radiometric Assay; assay type: biochemical; settings: [gamma-33P]-ATP, myelin basic protein substrate, read-out: HPK1 IC50 nM Range*
T1 construct: Recombinant (1-346) HPK1 (h) is incubated with 8 mM MOPS pH 7.0
T1 sequence (Q92918 1-346): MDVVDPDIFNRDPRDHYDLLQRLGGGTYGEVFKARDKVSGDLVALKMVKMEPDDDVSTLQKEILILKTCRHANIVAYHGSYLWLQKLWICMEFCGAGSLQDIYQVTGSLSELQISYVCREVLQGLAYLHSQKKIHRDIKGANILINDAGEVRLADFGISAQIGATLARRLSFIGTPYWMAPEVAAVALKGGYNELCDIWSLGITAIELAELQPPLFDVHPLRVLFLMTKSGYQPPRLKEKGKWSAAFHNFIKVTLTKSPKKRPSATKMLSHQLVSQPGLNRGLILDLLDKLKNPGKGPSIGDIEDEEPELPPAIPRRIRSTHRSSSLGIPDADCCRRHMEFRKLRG
Experimental: (a) HPK1 Human STE Kinase Enzymatic Radiometric Assay
A stock solution of 10 mM of test compound is prepared in DMSO. The compound plate was prepared by 3-fold and 9-point serial dilutions. Recombinant (1-346) HPK1 (h) is incubated with 8 mM MOPS pH 7.0, 0.2 mM EDTA, 0.33 mg/mL myelin basic protein, 10 mM MgAcetate and [gamma-33P]-ATP (specific activity and concentration as required). The reaction is initiated by the addition of the Mg/ATP mix. After incubation for 40 minutes at RT, the reaction is stopped by the addition of phosphoric acid to a concentration of 0.5%. 10 uL of the reaction is then spotted onto a P30 filtermat and washed four times for 4 minutes in 0.425% phosphoric acid and once in methanol prior to drying and scintillation counting. For more details of kinase assay protocols, see: Gao, Y. et. al.; Biochem J. 451 (2): 313-328, 2013.

Chain of Lck (h) (P06239 whole entry): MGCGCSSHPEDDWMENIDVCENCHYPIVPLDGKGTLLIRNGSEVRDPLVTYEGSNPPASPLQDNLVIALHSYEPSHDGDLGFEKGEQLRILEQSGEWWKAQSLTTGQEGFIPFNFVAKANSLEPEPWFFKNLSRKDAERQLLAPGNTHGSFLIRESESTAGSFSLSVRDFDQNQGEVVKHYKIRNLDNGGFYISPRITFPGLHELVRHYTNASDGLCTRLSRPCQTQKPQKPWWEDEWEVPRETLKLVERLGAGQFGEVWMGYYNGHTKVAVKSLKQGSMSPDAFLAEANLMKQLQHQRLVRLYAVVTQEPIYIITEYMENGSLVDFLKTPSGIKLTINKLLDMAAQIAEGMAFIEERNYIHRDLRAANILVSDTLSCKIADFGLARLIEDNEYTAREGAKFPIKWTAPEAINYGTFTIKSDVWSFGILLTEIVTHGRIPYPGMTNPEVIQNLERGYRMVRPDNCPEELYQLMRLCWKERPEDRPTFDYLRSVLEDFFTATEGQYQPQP

Row | Structure (SMILES) | IC50 [1] [nM] | Selectivity ([1]; selectivity for inhibition of HPK1 vs Lck) | IC50 [2] [nM]
1 | CC(C)[C@H]1CN(c2ccc(-c3cnc(N)c(-c4ccc5c(c4)CCNC5=O)n3)c(F)c2)CCO1 [Example I-14, (S)-6-(3-amino-6-(2-fluoro-4-(2-isopropylmorpholino)phenyl)pyrazin-2-yl)-3,4-dihydroisoquinolin-1(2H)-one] | 21 to 200 | 1066 | 0.1 to 5
2 | CC(C)[C@@H]1CN(c2ccc(-c3cnc(N)c(-c4ccc5c(c4)CCNC5=O)n3)c(F)c2F)CCO1 [Example I-15, (R)-6-(3-amino-6-(2,3-difluoro-4-(2-isopropylmorpholino)phenyl)pyrazin-2-yl)-3,4-dihydroisoquinolin-1(2H)-one] | 21 to 200 | – | 0.1 to 5
3 | CC(C)[C@H]1CN(c2ccc(-c3cnc(N)c(-c4ccc5c(c4)CCNC5=O)n3)c(F)c2F)CCO1 [Example I-16, (S)-6-(3-amino-6-(2,3-difluoro-4-(2-isopropylmorpholino)phenyl)pyrazin-2-yl)-3,4-dihydroisoquinolin-1(2H)-one] | 21 to 200 | – | 0.1 to 5
4 | C[C@@H]1CCCCN1c1ccc(-c2cnc(N)c(-c3ccc4c(c3)CCNC4=O)n2)c(F)c1 [Example I-17, (R)-6-(3-amino-6-(2-fluoro-4-(2-methylpiperidin-1-yl)phenyl)pyrazin-2-yl)-3,4-dihydroisoquinolin-1(2H)-one] | 21 to 200 | – | 0.1 to 5
5 | C[C@H]1CCCCN1c1ccc(-c2cnc(N)c(-c3ccc4c(c3)CCNC4=O)n2)c(F)c1 [Example I-18, (S)-6-(3-amino-6-(2-fluoro-4-(2-methylpiperidin-1-yl)phenyl)pyrazin-2-yl)-3,4-dihydroisoquinolin-1(2H)-one] | 21 to 200 | – | 6 to 10
6 | CC(=O)N1CCN(c2ccc(-c3cnc(N)c(-c4ccc5c(c4)CCNC5=O)n3)cc2)CC1 [Example I-19, 6-(6-(4-(4-acetylpiperazin-1-yl)phenyl)-3-aminopyrazin-2-yl)-3,4-dihydroisoquinolin-1(2H)-one] | 11 to 20 | – | 0.1 to 5
7 | CN(C)C1CCN(c2ccc(-c3cnc(N)c(-c4ccc5c(c4)CCNC5=O)n3)c(F)c2)C1 (stereo not drawn) [Example I-20, 6-(3-amino-6-(4-(3-(dimethylamino)pyrrolidin-1-yl)-2-fluorophenyl)pyrazin-2-yl)-3,4-dihydroisoquinolin-1(2H)-one] | 11 to 20 | – | 0.1 to 5
8 | CN(C)C1CCN(c2ccc(-c3cnc(N)c(-c4ccc5c(c4)CCNC5=O)n3)c(F)c2F)C1 (stereo not drawn) [Example I-21, 6-(3-amino-6-(4-(3-(dimethylamino)pyrrolidin-1-yl)-2,3-difluorophenyl)pyrazin-2-yl)-3,4-dihydroisoquinolin-1(2H)-one] | 11 to 20 | – | 0.1 to 5
9 | C[C@@H]1COCCN1c1ccc(-c2cnc(N)c(-c3ccc4c(c3)CCNC4=O)n2)c(F)c1 [Example I-22, (R)-6-(3-amino-6-(2-fluoro-4-(3-methylmorpholino)phenyl)pyrazin-2-yl)-3,4-dihydroisoquinolin-1(2H)-one] | 21 to 200 | – | 6 to 10
10 | C[C@H]1COCCN1c1ccc(-c2cnc(N)c(-c3ccc4c(c3)CCNC4=O)n2)c(F)c1 [Example I-23, (S)-6-(3-amino-6-(2-fluoro-4-(3-methylmorpholino)phenyl)pyrazin-2-yl)-3,4-dihydroisoquinolin-1(2H)-one] | 11 to 20 | – | 0.1 to 5
11 | CC(C)C1CCCN(c2ccc(-c3cnc(N)c(-c4ccc5c(c4)CCNC5=O)n3)cc2)C1 (stereo not drawn) [Example I-24, 6-(3-amino-6-(4-(3-isopropylpiperidin-1-yl)phenyl)pyrazin-2-yl)-3,4-dihydroisoquinolin-1(2H)-one] | 21 to 200 | – | 0.1 to 5
12 | CC(C)C1CCCN(c2ccc(-c3cnc(N)c(-c4ccc5c(c4)CCNC5=O)n3)c(F)c2)C1 (stereo not drawn) [Example I-25, 6-(3-amino-6-(2-fluoro-4-(3-isopropylpiperidin-1-yl)phenyl)pyrazin-2-yl)-3,4-dihydroisoquinolin-1(2H)-one] | 21 to 200 | – | 6 to 10
13 | CN1C[C@@H]2C[C@H]1CN2c1ccc(-c2cnc(N)c(-c3ccc4c(c3)CCNC4=O)n2)cc1 [Example I-26, 6-(3-amino-6-(4-((1S,4S)-5-methyl-2,5-diazabicyclo[2.2.1]heptan-2-yl)phenyl)pyrazin-2-yl)-3,4-dihydroisoquinolin-1(2H)-one] | 11 to 20 | – | 0.1 to 5
14 | CC(C)[C@@H]1CN(c2ccc(-c3cnc(N)c(-c4cc5c(cc4F)C(=O)NCC5)n3)cc2)CCO1 [Example I-27, (R)-6-(3-amino-6-(4-(2-isopropylmorpholino)phenyl)pyrazin-2-yl)-7-fluoro-3,4-dihydroisoquinolin-1(2H)-one] | 6 to 10 | – | 0.1 to 5
15 | CC(C)[C@H]1CN(c2ccc(-c3cnc(N)c(-c4cc5c(cc4F)C(=O)NCC5)n3)cc2)CCO1 [Example I-28, (S)-6-(3-amino-6-(4-(2-isopropylmorpholino)phenyl)pyrazin-2-yl)-7-fluoro-3,4-dihydroisoquinolin-1(2H)-one] | 11 to 20 | – | 0.1 to 5
16 | CC(C)[C@@H]1CN(c2ccc(-c3cnc(N)c(-c4cc5c(cc4F)C(=O)NCC5)n3)c(F)c2)CCO1 [Example I-29, (R)-6-(3-amino-6-(2-fluoro-4-(2-isopropylmorpholino)phenyl)pyrazin-2-yl)-7-fluoro-3,4-dihydroisoquinolin-1(2H)-one] | 21 to 200 | – | 0.1 to 5
17 | CC(C)[C@H]1CN(c2ccc(-c3cnc(N)c(-c4cc5c(cc4F)C(=O)NCC5)n3)c(F)c2)CCO1 [Example I-30, (S)-6-(3-amino-6-(2-fluoro-4-(2-isopropylmorpholino)phenyl)pyrazin-2-yl)-7-fluoro-3,4-dihydroisoquinolin-1(2H)-one] | 21 to 200 | – | 0.1 to 5
18 | CC(C)[C@@H]1CN(c2ccc(-c3cnc(N)c(-c4cc5c(cc4F)C(=O)NCC5)n3)c(F)c2F)CCO1 [Example I-31, (R)-6-(3-amino-6-(2,3-difluoro-4-(2-isopropylmorpholino)phenyl)pyrazin-2-yl)-7-fluoro-3,4-dihydroisoquinolin-1(2H)-one] | 21 to 200 | – | 0.1 to 5
19 | CC(C)[C@H]1CN(c2ccc(-c3cnc(N)c(-c4cc5c(cc4F)C(=O)NCC5)n3)c(F)c2F)CCO1 [Example I-32, (S)-6-(3-amino-6-(2,3-difluoro-4-(2-isopropylmorpholino)phenyl)pyrazin-2-yl)-7-fluoro-3,4-dihydroisoquinolin-1(2H)-one] | 21 to 200 | – | 0.1 to 5
20 | CN1CCN(c2ccc(-c3cnc(N)c(-c4ccc5c(c4)CCNC5=O)n3)cc2)C=N1 [Example I-33, 6-(3-amino-6-(4-(1-methyl-5,6-dihydro-1,2,4-triazin-4(1H)-yl)phenyl)pyrazin-2-yl)-3,4-dihydroisoquinolin-1(2H)-one] | 11 to 20 | – | 0.1 to 5
21 | Nc1ncc(-c2ccc(N3C[C@@H]4C[C@H]3CN4CC(F)(F)F)cc2)nc1-c1ccc2c(c1)CCNC2=O [Example I-34, 6-(3-amino-6-(4-((1S,4S)-5-(2,2,2-trifluoroethyl)-2,5-diazabicyclo[2.2.1]heptan-2-yl)phenyl)pyrazin-2-yl)-3,4-dihydroisoquinolin-1(2H)-1-one] | 11 to 20 | – | 0.1 to 5
22 | Nc1ncc(-c2ccc(N3CCN(CC(F)(F)F)CC3)cc2)nc1-c1ccc2c(c1)CCNC2=O [Example I-35, 6-(3-amino-6-(4-(4-(2,2,2-trifluoroethyl)piperazin-1-yl)phenyl)pyrazin-2-yl)-3,4-dihydroisoquinolin-1(2H)-one] | 11 to 20 | – | 0.1 to 5
